In BindingDB's records for doi:10.1021/acsmedchemlett.0c00405 (University of Oxford, 2020):

Assay: Modulation of human utrophinA expressed in mouse H2K-mdx utrnA-luc cells assessed as upregulation of utrophin production after 24 hrs by luciferase reporter gene assay

SMILES	EC50 [nM]
CCP(=O)(OC)c1ccc2nc(-c3ccc(C(F)F)cc3)oc2c1 (stereo not given)	1900
CCP(=O)(OC)c1ccc2oc(-c3cccc(C(F)F)c3)nc2c1 (stereo not given)	890
CCP(=O)(OC)c1ccc2oc(-c3cncc(C(F)F)c3)nc2c1 (stereo not given)	5900
CCP(=O)(OC)c1ccc2oc(-c3cncc(C(F)(F)F)c3)nc2c1 (stereo not given)	4170
CCP(=O)(OC)c1ccc2nc(-c3ccccc3C(F)F)oc2c1 (stereo not given)	500
CCP(=O)(OC)c1ccc2oc(-c3ccccc3C(F)F)nc2c1 (stereo not given)	1260
CCP(=O)(OC)c1ccc2nc(-c3cncc(C(F)(F)F)c3)oc2c1 (stereo not given)	> 50000
CCP(=O)(OC)c1ccc2oc(-c3ccc4c(c3)OC(F)(F)O4)nc2c1 (stereo not given)	530
CCP(=O)(OC)c1ccc2oc(-c3cccc(OC)c3)nc2c1 (stereo not given)	157
CCP(=O)(OC)c1ccc2oc(-c3ccc(OC)cc3)nc2c1 (stereo not given)	510
CCP(=O)(OC)c1ccc2nc(-c3cccc(OC(F)F)c3)oc2c1 (stereo not given)	> 50000
CCP(=O)(OC)c1ccc2oc(-c3ccnc(OC(F)F)c3)nc2c1 (stereo not given)	309
CCP(=O)(OC)c1ccc2oc(-c3ccc(C(F)F)cc3)nc2c1 (stereo not given)	750
CCP(=O)(OC)c1ccc2oc(-c3cccc(OC(F)F)c3)nc2c1 (stereo not given)	677
CCP(=O)(OC)c1ccc2oc(-c3ccc(F)cc3C(F)F)nc2c1 (stereo not given)	580
